# Source: ChEMBL document CHEMBL1201862, “PubChem BioAssay data set” (2004)
#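 Interpolation was linear, between the two tested concentrations surrounding the appropriate level; five concentrations were tested over 48 hours in 96-well plates. GI50 is the concentration that inhibits growth by half.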 The source made the active and inactive calls. Rule as the data show it: active = GI50 up to about 1.1 µM and inactive = higher.
# How the values were obtained:
# Experiment in all cases: NCI tumour cell line growth inhibition, 48 h
# A498 = system: A498
# A549 = system: A549
# CAKI-1 = system: CAKI-1
# CCRF-CEM = system: CCRF-CEM
# COLO 205 = system: COLO 205
# DLD-1 = system: DLD-1
# DMS-114 = system: DMS-114
# DMS-273 = system: DMS-273
# EKVX = system: EKVX
# HCC 2998 = system: HCC 2998
# HCT-116 = system: HCT-116
# HCT-15 = system: HCT-15
# HL-60 = system: HL-60
# HOP-18 = system: HOP-18
# HOP-62 = system: HOP-62
# HOP-92 = system: HOP-92
# HT-29 = system: HT-29
# IGROV-1 = system: IGROV-1
# K562 = system: K562
# KM-20L2 = system: KM-20L2
# KM12 = system: KM12
# LOX IMVI = system: LOX IMVI
# M19-MEL = system: M19-MEL
# MCF7 = system: MCF7
# MOLT-4 = system: MOLT-4
# Malme-3M = system: Malme-3M
# NCI-H226 = system: NCI-H226
# NCI-H23 = system: NCI-H23
# NCI-H460 = system: NCI-H460
# NCI-H522 = system: NCI-H522
# NCI/ADR-RES = system: NCI/ADR-RES
# OVCAR-3 = system: OVCAR-3
# OVCAR-4 = system: OVCAR-4
# OVCAR-5 = system: OVCAR-5
# OVCAR-8 = system: OVCAR-8
# RPMI-8226 = system: RPMI-8226
# RXF 393 = system: RXF 393
# SF-268 = system: SF-268
# SF-295 = system: SF-295
# SF-539 = system: SF-539
# SK-MEL-28 = system: SK-MEL-28
# SK-MEL-2 = system: SK-MEL-2
# SK-MEL-5 = system: SK-MEL-5
# SK-OV-3 = system: SK-OV-3
# SN12C = system: SN12C
# SNB-19 = system: SNB-19
# SNB-75 = system: SNB-75
# SNB-78 = system: SNB-78
# SW-620 = system: SW-620
# U-251 = system: U-251
# UACC-257 = system: UACC-257
# UACC-62 = system: UACC-62
# UO-31 = system: UO-31
# XF498 = system: XF498
# 786-0 = system: 786-0
# ACHN = system: ACHN
# TK-10 = system: TK-10
structure (smiles),measurement,setting,value
COc1cc(/C=C/c2ccc(OC)c(OC)c2)oc(=O)c1,GI50,A498,> 169 µM (inactive)
same,GI50,A549,> 250 µM (inactive)
same,GI50,CAKI-1,> 92.3 µM (inactive)
same,GI50,CCRF-CEM,> 194 µM (inactive)
same,GI50,COLO 205,> 250 µM (inactive)
same,GI50,DLD-1,> 250 µM (inactive)
same,GI50,DMS-114,> 182 µM (inactive)
same,GI50,DMS-273,> 110 µM (inactive)
same,GI50,EKVX,> 116 µM (inactive)
same,GI50,HCC 2998,> 250 µM (inactive)
same,GI50,HCT-116,> 250 µM (inactive)
same,GI50,HCT-15,> 250 µM
same,GI50,HL-60,> 91.6 µM (inactive)
same,GI50,HOP-18,4.88 µM (inactive)
same,GI50,HOP-62,124 µM (inactive)
same,GI50,HOP-92,122 µM (inactive)
same,GI50,HT-29,> 250 µM (inactive)
same,GI50,IGROV-1,> 220 µM (inactive)
same,GI50,K562,> 250 µM (inactive)
same,GI50,KM-20L2,> 167 µM (inactive)
same,GI50,KM12,> 250 µM (inactive)
same,GI50,LOX IMVI,> 250 µM (inactive)
same,GI50,M19-MEL,> 250 µM (inactive)
same,GI50,MCF7,> 250 µM (inactive)
same,GI50,MOLT-4,> 250 µM (inactive)
same,GI50,Malme-3M,> 250 µM (inactive)
same,GI50,NCI-H226,> 250 µM (inactive)
same,GI50,NCI-H23,203 µM (inactive)
same,GI50,NCI-H460,> 230 µM (inactive)
same,GI50,NCI-H522,> 195 µM (inactive)
same,GI50,NCI/ADR-RES,> 250 µM (inactive)
same,GI50,OVCAR-3,> 250 µM (inactive)
same,GI50,OVCAR-4,> 250 µM (inactive)
same,GI50,OVCAR-5,> 250 µM (inactive)
same,GI50,OVCAR-8,10 µM (inactive)
same,GI50,RPMI-8226,> 250 µM (inactive)
same,GI50,RXF 393,57 µM (inactive)
same,GI50,SF-268,> 170 µM (inactive)
same,GI50,SF-295,162 µM (inactive)
same,GI50,SF-539,213 µM (inactive)
same,GI50,SK-MEL-28,> 250 µM (inactive)
same,GI50,SK-MEL-2,> 213 µM (inactive)
same,GI50,SK-MEL-5,> 250 µM (inactive)
same,GI50,SK-OV-3,> 250 µM (inactive)
same,GI50,SN12C,> 250 µM (inactive)
same,GI50,SNB-19,> 218 µM (inactive)
same,GI50,SNB-75,73.3 µM (inactive)
same,GI50,SNB-78,150 µM (inactive)
same,GI50,SW-620,> 250 µM (inactive)
same,GI50,U-251,199 µM (inactive)
same,GI50,UACC-257,> 250 µM (inactive)
same,GI50,UACC-62,247 µM (inactive)
same,GI50,UO-31,> 250 µM (inactive)
same,GI50,XF498,> 250 µM (inactive)
CCCCCOCC(O)CO (configuration not stated),GI50,786-0,> 100 µM (inactive)
same,GI50,A498,> 100 µM (inactive)
same,GI50,A549,> 100 µM (inactive)
same,GI50,ACHN,> 100 µM (inactive)
same,GI50,CAKI-1,> 100 µM (inactive)
same,GI50,COLO 205,> 100 µM (inactive)
same,GI50,DLD-1,> 100 µM (inactive)
same,GI50,DMS-114,> 100 µM (inactive)
same,GI50,DMS-273,> 100 µM (inactive)
same,GI50,EKVX,> 100 µM (inactive)
same,GI50,HCT-116,> 100 µM (inactive)
same,GI50,HCT-15,> 100 µM
same,GI50,HOP-18,> 100 µM (inactive)
same,GI50,HOP-62,> 100 µM (inactive)
same,GI50,HOP-92,> 100 µM (inactive)
same,GI50,IGROV-1,> 100 µM (inactive)
same,GI50,KM-20L2,> 100 µM (inactive)
same,GI50,KM12,> 100 µM (inactive)
same,GI50,LOX IMVI,> 100 µM (inactive)
same,GI50,Malme-3M,> 100 µM (inactive)
same,GI50,NCI-H226,> 100 µM (inactive)
same,GI50,NCI-H23,> 100 µM (inactive)
same,GI50,NCI-H460,> 100 µM (inactive)
same,GI50,OVCAR-3,> 100 µM (inactive)
same,GI50,OVCAR-4,> 100 µM (inactive)
same,GI50,OVCAR-5,> 100 µM (inactive)
same,GI50,OVCAR-8,> 100 µM (inactive)
same,GI50,RXF 393,> 100 µM (inactive)
same,GI50,SF-268,> 100 µM (inactive)
same,GI50,SF-295,> 100 µM (inactive)
same,GI50,SF-539,> 100 µM (inactive)
same,GI50,SK-MEL-28,> 100 µM (inactive)
same,GI50,SK-MEL-2,> 100 µM (inactive)
same,GI50,SK-MEL-5,> 100 µM (inactive)
same,GI50,SN12C,> 100 µM (inactive)
same,GI50,SNB-19,> 100 µM (inactive)
same,GI50,SNB-78,> 100 µM (inactive)
same,GI50,SW-620,> 100 µM (inactive)
same,GI50,TK-10,> 100 µM (inactive)
same,GI50,U-251,> 100 µM (inactive)
same,GI50,UACC-257,> 100 µM (inactive)
same,GI50,UACC-62,> 100 µM (inactive)
same,GI50,XF498,44.6 µM (inactive)
